# Source: the supplement of paper PMC10307832
# Experiments:
# Test in all cases: relative viability (nuclei count vs DMSO), 5 days (fraction); higher = more cells survive
# [1] = test system: 201T
# Procedure, shortened: (§1)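 Five library-drug doses in √10 steps were combined with a fixed anchor-drug dose, or a single drug was given alone, by pin tool to lung cancer cell lines in 1536-well plates the day after seeding. Nuclei were stained and counted after 5 days. Relative viability is the nuclei count in treated wells over that in vehicle wells, taken as the median of duplicate plates.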
# [2] = test system: BEN
# Procedure, shortened: as §1
# [3] = test system: EMC-BAC-2
# Procedure, shortened: as §1
# [4] = test system: HARA
# Procedure, shortened: as §1
# [5] = test system: LCLC-103H
# Procedure, shortened: as §1
# [6] = test system: LOU-NH91
# Procedure, shortened: as §1
# [7] = test system: NCI-H1395
# Procedure, shortened: as §1
# [8] = test system: NCI-H1993
# Procedure, shortened: as §1
# [9] = test system: NCI-H2023
# Procedure, shortened: as §1
# [10] = test system: NCI-H2087
# Procedure, shortened: as §1
# [11] = test system: NCI-H2126
# Procedure, shortened: as §1
# [12] = test system: NCI-H2347
# Procedure, shortened: as §1
# [13] = test system: NCI-H23
# Procedure, shortened: as §1
# [14] = test system: NCI-H3122
# Procedure, shortened: as §1
# [15] = test system: NCI-H441
# Procedure, shortened: as §1
# [16] = test system: NCI-H596
# Procedure, shortened: as §1
# [17] = test system: NCI-H647
# Procedure, shortened: as §1
# [18] = test system: NCI-H650
# Procedure, shortened: as §1
# [19] = test system: NCI-H727
# Procedure, shortened: as §1
# [20] = test system: NCI-H838
# Procedure, shortened: as §1
smiles,measurement,setting,value
Nc1ccn([C@@H]2O[C@H](CO)[C@@H](O)[C@@H]2O)c(=O)n1 [Cytarabine] + COc1cc2c(Oc3ccc(NC(=O)C4(C(=O)Nc5ccc(F)cc5)CC4)cc3F)ccnc2cc1OCCCN1CCOCC1 [Foretinib] (partner 0.25 µM),relative viability,[1]; first compound 0.005 µM,1.1
same,relative viability,[1]; first compound 0.01581 µM,1.12
same,relative viability,[1]; first compound 0.05 µM,1.02
same,relative viability,[1]; first compound 0.1581 µM,0.762
same,relative viability,[1]; first compound 0.5 µM,0.323
same,relative viability,[2]; first compound 0.005 µM,0.768
same,relative viability,[2]; first compound 0.01581 µM,0.515
same,relative viability,[2]; first compound 0.05 µM,0.301
same,relative viability,[2]; first compound 0.1581 µM,0.278
same,relative viability,[2]; first compound 0.5 µM,0.222
same,relative viability,[3]; first compound 0.005 µM,0.954
same,relative viability,[3]; first compound 0.01581 µM,0.831
same,relative viability,[3]; first compound 0.05 µM,0.305
same,relative viability,[3]; first compound 0.1581 µM,0.282
same,relative viability,[3]; first compound 0.5 µM,0.226
same,relative viability,[4]; first compound 0.005 µM,0.753
same,relative viability,[4]; first compound 0.01581 µM,0.496
same,relative viability,[4]; first compound 0.05 µM,0.363
same,relative viability,[4]; first compound 0.1581 µM,0.107
same,relative viability,[4]; first compound 0.5 µM,0.123
same,relative viability,[5]; first compound 0.005 µM,0.849
same,relative viability,[5]; first compound 0.01581 µM,0.817
same,relative viability,[5]; first compound 0.05 µM,0.96
same,relative viability,[5]; first compound 0.1581 µM,0.604
same,relative viability,[5]; first compound 0.5 µM,0.57
same,relative viability,[6]; first compound 0.005 µM,0.993
same,relative viability,[6]; first compound 0.01581 µM,0.926
same,relative viability,[6]; first compound 0.05 µM,0.869
same,relative viability,[6]; first compound 0.1581 µM,0.585
same,relative viability,[6]; first compound 0.5 µM,0.712
same,relative viability,[7]; first compound 0.005 µM,0.917
same,relative viability,[7]; first compound 0.01581 µM,0.757
same,relative viability,[7]; first compound 0.05 µM,0.548
same,relative viability,[7]; first compound 0.1581 µM,0.492
same,relative viability,[7]; first compound 0.5 µM,0.413
same,relative viability,[8]; first compound 0.005 µM,0.843
same,relative viability,[8]; first compound 0.01581 µM,0.889
same,relative viability,[8]; first compound 0.05 µM,0.726
same,relative viability,[8]; first compound 0.1581 µM,0.485
same,relative viability,[8]; first compound 0.5 µM,0.468
same,relative viability,[9]; first compound 0.005 µM,0.535
same,relative viability,[9]; first compound 0.01581 µM,0.502
same,relative viability,[9]; first compound 0.05 µM,0.158
same,relative viability,[9]; first compound 0.1581 µM,0.101
same,relative viability,[9]; first compound 0.5 µM,0.0682
same,relative viability,[10]; first compound 0.005 µM,1.11
same,relative viability,[10]; first compound 0.01581 µM,0.834
same,relative viability,[10]; first compound 0.05 µM,0.851
same,relative viability,[10]; first compound 0.1581 µM,0.491
same,relative viability,[10]; first compound 0.5 µM,0.253
same,relative viability,[11]; first compound 0.005 µM,1.01
same,relative viability,[11]; first compound 0.01581 µM,1.03
same,relative viability,[11]; first compound 0.05 µM,1.1
same,relative viability,[11]; first compound 0.1581 µM,0.922
same,relative viability,[11]; first compound 0.5 µM,0.694
same,relative viability,[12]; first compound 0.005 µM,1.32
same,relative viability,[12]; first compound 0.01581 µM,1.43
same,relative viability,[12]; first compound 0.05 µM,0.806
same,relative viability,[12]; first compound 0.1581 µM,0.463
same,relative viability,[12]; first compound 0.5 µM,0.343
same,relative viability,[13]; first compound 0.005 µM,0.784
same,relative viability,[13]; first compound 0.01581 µM,0.414
same,relative viability,[13]; first compound 0.05 µM,0.43
same,relative viability,[13]; first compound 0.1581 µM,0.285
same,relative viability,[13]; first compound 0.5 µM,0.256
same,relative viability,[14]; first compound 0.005 µM,0.887
same,relative viability,[14]; first compound 0.01581 µM,0.805
same,relative viability,[14]; first compound 0.05 µM,0.777
same,relative viability,[14]; first compound 0.1581 µM,0.509
same,relative viability,[14]; first compound 0.5 µM,0.344
same,relative viability,[15]; first compound 0.005 µM,0.841
same,relative viability,[15]; first compound 0.01581 µM,0.856
same,relative viability,[15]; first compound 0.05 µM,1.05
same,relative viability,[15]; first compound 0.1581 µM,0.661
same,relative viability,[15]; first compound 0.5 µM,0.4
same,relative viability,[16]; first compound 0.005 µM,0.923
same,relative viability,[16]; first compound 0.01581 µM,0.723
same,relative viability,[16]; first compound 0.05 µM,0.542
same,relative viability,[16]; first compound 0.1581 µM,0.44
same,relative viability,[16]; first compound 0.5 µM,0.336
same,relative viability,[17]; first compound 0.005 µM,0.625
same,relative viability,[17]; first compound 0.01581 µM,0.617
same,relative viability,[17]; first compound 0.05 µM,0.282
same,relative viability,[17]; first compound 0.1581 µM,0.109
same,relative viability,[17]; first compound 0.5 µM,0.11
same,relative viability,[18]; first compound 0.005 µM,0.857
same,relative viability,[18]; first compound 0.01581 µM,0.642
same,relative viability,[18]; first compound 0.05 µM,0.504
same,relative viability,[18]; first compound 0.1581 µM,0.283
same,relative viability,[18]; first compound 0.5 µM,0.227
same,relative viability,[19]; first compound 0.005 µM,0.656
same,relative viability,[19]; first compound 0.01581 µM,0.681
same,relative viability,[19]; first compound 0.05 µM,0.597
same,relative viability,[19]; first compound 0.1581 µM,0.488
same,relative viability,[19]; first compound 0.5 µM,0.397
same,relative viability,[20]; first compound 0.005 µM,1.13
same,relative viability,[20]; first compound 0.01581 µM,1.08
same,relative viability,[20]; first compound 0.05 µM,0.939
same,relative viability,[20]; first compound 0.1581 µM,0.486
same,relative viability,[20]; first compound 0.5 µM,0.301
